Measurements as given in patent US9593138B2, “Nitrile-containing enzyme inhibitors and ruthenium complexes thereof” (Wayne State University, priority 2012, dated 2017).
One block for each molecule: values may come before it.

How the values were obtained:
papain = target: T1, papain (Carica papaya, UniProt P00784); experiment: Papain inhibition, chromogenic substrate BAPNA, light vs dark; format: biochemical
T1 sequence (P00784 134-345): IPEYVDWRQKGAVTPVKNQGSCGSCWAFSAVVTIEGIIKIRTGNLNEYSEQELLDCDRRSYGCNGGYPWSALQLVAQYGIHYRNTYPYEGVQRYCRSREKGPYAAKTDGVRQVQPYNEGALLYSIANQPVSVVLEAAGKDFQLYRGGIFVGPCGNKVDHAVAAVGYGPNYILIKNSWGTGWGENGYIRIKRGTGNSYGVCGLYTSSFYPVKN
Method: FIG. 5. […] Data points represent an average of three reactions and error bars are standard deviations.
Papain Inhibition Studies. The inhibition studies with papain were carried out following a modified procedure by Gütschow and coworkers (Löser et al., J. Med. Chem. 2005, 48, 7688-7707). […] A 0.25 mM papain stock solution was prepared in 0.1 mM HCl and kept frozen. For each experiment, the stock solution was diluted 250 times and activated for 45 min at 25° C. with a 0.1 M phosphate pH 6.5, 15 mM DTT and 2.5 mM EDTA buffer solution. A 10.0 mM solution of BAPNA in DMSO was prepared daily and plated (final concentration 1.0 mM). The inhibitor was plated as a 1% DMSO solution in the assay buffer.
The photolysis was conducted for 10 minutes (with gentle shaking of the plate every 2-3 minutes) using a 250 W tungsten halogen lamp (Osram Xenophot HLX) powered by a 24 V power supply. The irradiation wavelength was selected by placing a bandpass filter (395 nm cutoff) between the lamp and the sample, along with a 10 cm water cell to absorb infrared light. After photolysis, the reaction was initiated by addition of 65 μL of enzyme (final volume 100 μL, final enzyme concentration 0.65 μM). The absorbance changes due to the hydrolysis product p-nitroaniline (pNA) were measured at 405 nm every 2 min for 14 min (8 measures) at 25° C.

human cathepsin B = target: T2, human cathepsin B (Homo sapiens, UniProt P07858); experiment: Cathepsin B inhibition, Z-Arg-Arg-AMC, light vs dark; format: biochemical; details: without irradiation (dark); pH 6.0
T2 construct: Purified cathepsin B (human liver) was obtained from Enzo Life Sciences; purchased Enzo Life Sciences; host or cells: human liver (tissue-purified)
Text: (§1) The irradiation wavelength was selected by placing a bandpass filter (395 nm cutoff) between the lamp and the sample, along with a 10 cm water cell to absorb infrared light.

human cathepsin K [1] = target: T3, human cathepsin K (Homo sapiens, UniProt P43235); experiment: Cathepsin K inhibition, Z-Gly-Pro-Arg-AMC, light vs dark; format: biochemical; details: without irradiation (dark); pH 5.5
T3 sequence (P43235 115-329): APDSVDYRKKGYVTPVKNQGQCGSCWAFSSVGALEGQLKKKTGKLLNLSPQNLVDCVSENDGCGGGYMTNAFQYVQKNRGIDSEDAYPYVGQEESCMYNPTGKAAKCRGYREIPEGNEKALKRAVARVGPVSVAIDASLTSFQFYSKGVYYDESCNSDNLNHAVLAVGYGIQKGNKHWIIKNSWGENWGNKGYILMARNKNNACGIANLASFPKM
Method: Cathepsins B, K and L were then examined for photoinduced inhibition with V. IC50 values for 1 and V (with and without irradiation) were determined in aqueous buffer at pH 5.5 for cathepsins L and K, and pH 6.0 for cathepsin B using fluorogenic substrates selective for each enzyme (Table 1). […] Control experiments show some level of inhibition by [Ru^II(bpy)2(MeCN)2](PF6)2, which may explain the lower ratios for dark vs. light conditions observed with cathepsins vs. papain.
The IC50 values represent the average from three independent experiments. […] Activities were determined with the fluorogenic substrates Z-Arg-Arg-AMC (cathepsin B), Z-Gly-Pro-Arg-AMC (cathepsin K) and Z-Phe-Arg-AMC (cathepsin L) (where AMC is aminomethylcoumarin). […]
Cathepsin Inhibition Studies. Cathepsin enzyme activity was determined from kinetic measurements performed by fluorometric detection of the hydrolysis product aminomethylcoumarin (AMC) at 37° C. every 2 min for 14 min (8 measures). […]
The photolysis was conducted for 10 minutes (with gentle shaking of the plate every 2-3 min) using a 250 W tungsten halogen lamp (Osram Xenophot HLX) powered by a 24 V power supply. […] Cathepsin enzyme activity was determined from kinetic measurements performed by fluorometric detection of the hydrolysis product AMC at 37° C. every 2 min for 14 min (8 measures) and MAX RFU slope values used for plotting (FIG. 7).

human cathepsin L = target: T4, human cathepsin L (Homo sapiens, UniProt P07711); experiment: Cathepsin L inhibition, Z-Phe-Arg-AMC, light vs dark; format: biochemical; details: without irradiation (dark); pH 5.5
T4 construct: purchased Sigma
T4 sequence (P07711 114-333): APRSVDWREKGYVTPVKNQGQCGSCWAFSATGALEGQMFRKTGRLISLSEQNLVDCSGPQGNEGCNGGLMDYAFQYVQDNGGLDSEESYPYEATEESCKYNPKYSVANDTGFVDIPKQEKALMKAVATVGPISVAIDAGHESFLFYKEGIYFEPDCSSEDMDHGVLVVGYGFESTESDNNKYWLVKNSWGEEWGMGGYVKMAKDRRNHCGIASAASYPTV
Text: as §1

[2] = target: T5, human cathepsin B in DU145 lysates (Homo sapiens, UniProt P07858); experiment: Cathepsin B activity in DU145 lysates, Z-Arg-Arg-AMC; format: biochemical; details: DU145 lysate, without irradiation (dark)
T5 construct: endogenous in cells; host or cells: DU145 prostate carcinoma cells (ATCC), lysate
Text: as §1

[3] = target: T6, human cathepsin B in hBMSC lysates (Homo sapiens, UniProt P07858); experiment: Cathepsin B activity in hBMSC lysates, Z-Arg-Arg-AMC; format: biochemical; details: hBMSC lysate, without irradiation (dark)
T6 construct: lysates from primary human bone marrow stromal cells (hBMSC), an important source of cathepsin activity; endogenous in cells; host or cells: primary human bone marrow stromal cells (hBMSC), lysate
Text: as §1

[4] = Quantum yields of photoinduced CH3CN ligand exchange in H2O (Example 12); format: physicochemical; details: for quantum yield, first CH3CN ligand exchange (Φ500) / quantum yield, first CH3CN ligand exchange (Φ550): H2O; for quantum yield, first CH3CN ligand exchange (Φ500): 500 nm irradiation
Method: The quantum yields (Φ) for photoinduced ligand exchange of the first CH3CN in H2O were measured for complexes 12.1 and 12.3 with 500 nm and 550 nm irradiation wavelengths using the appropriate bandpass filters. The moles of complex reacted was quantitated using electronic absorption spectroscopy by monitoring the decrease in MLCT absorption maximum of each complex as a function of irradiation time (moles reacted/s) at early irradiation times, and Reinecke's salt was used as an actinometer to determine the intensity (Einstein/s) of the Xe arc lamp at the corresponding wavelengths. The Φ for the photoinduced ligand exchange of the second CH3CN ligand was measured for 12.1 using 400 nm and 550 nm irradiation wavelengths using the appropriate bandpass filters monitoring the decrease in the MLCT absorption peak of the mono-aqua intermediate, 12.4.

[5] = Dark controls: ligand exchange in the absence of light; format: physicochemical; details: H2O, room temperature (˜22° C.)
Method: FIG. 23. Dark Control with respect to FIG. 22 showing that the nitrile ligands are not released under similar conditions in the absence of light for a period of 24 hours.
Photochemistry. The photoreactivity of 12.1-12.3 was evaluated by monitoring the changes to the electronic absorption and ^1H NMR spectra as a function of irradiation time. […] Complexes 12.1-12.3 are inert to ligand substitution in the dark at room temperature under similar experimental conditions. For the symmetrical complexes 12.2 and 12.3, one resonance is observed in CD3CN corresponding to the methyl protons of both bound acetonitrile ligands at 2.22 ppm and 2.28 ppm, respectively. During the photolysis of 12.2 in CD3CN with λirr≧455 nm, the resonance at 2.22 ppm decreases with increasing irradiation time, while a peak at 1.96 ppm corresponding to free CH3CN in CD3CN increases in intensity at the same rate. The photolysis of 12.3 in CD3CN with λirr≧610 nm yields similar results with the decrease of the peak at 2.28 ppm with the concomitant increase of the free CH3CN resonance at 1.96 ppm. The intensity of the peak corresponding to free CH3CN at 1.96 ppm integrates to two ligands at the end of the photolysis for both 12.2 and 12.3 in CD3CN, indicative that that both CH3CN ligands in 12.2 and 12.3 are exchanged. […] Moreover, no shifts are observed in the aromatic region as the reaction progresses. […]

[6] = reported, cited from earlier work
BMM cells = experiment: MTT cell viability, BMM cells; format: cell-based, murine; details: 1 nM-100 μM, light or dark, after 24 h
Method: In order to gain more insight into the biological behavior of the caged inhibitor, effects of VI and its byproducts on cell viability in BMM cells were determined under light and dark conditions. BMM cells were treated with either VI or cis-[Ru(bpy)2(MeCN)2](PF6)2 as a control (1 nM-100 μM), incubated for 30 min, left in the dark or irradiated with a tungsten halogen lamp for 15 min and then washed, using the same protocol as the confocal microscopy studies shown in FIG. 15. After 24 h viabilities were determined using the MTT assay (FIG. 17).
(§2) FIG. 6. Cytotoxicity of cis-[Ru(bpy)2(2)2]Cl2 (3) and the control compound cis-[Ru(bpy)2(MeCN)2](PF6)2 on BMM cells (A-B) and prostate cancer PC3 cells (C-D). […] Cell viability was determined using the MTT assay after 24 h for BMM cells and 72 h for PC3 cells, and is reported relative to control with only buffer added. Error bars represent the standard deviations of triplicate wells, and data are representative of three independent experiments.

[7] = system: prostate cancer PC3 cells; experiment: MTT cell viability, PC3 cells; format: cell-based; details: 1 nM-100 μM, light or dark, up to 72 h
Method: as §2
These effects are highly dependent on the nature of ligands bound to ruthenium, and with some compounds treatment for up to 72 h is necessary to observe growth inhibitory effects. Later time points were not examined with BMM cells due to complications in maintaining these cells in culture over long periods of time, with or without VI.

human cathepsin K [8] = target: T3, human cathepsin K; experiment: Cathepsin K inhibition by the Ru(TPA)-caged inhibitor, 365 nm light (Example 10); format: biochemical; details: 500 μM, highest concentration surveyed, light and dark
Method: Complex 10.2 acts as a potent, photoactivated inhibitor of human cathepsin K. IC50 values were determined for 10.2 and 10.3 under dark conditions, and upon irradiation with 365 nm light (FIG. 20).

Molecule: CC(=O)N[C@@H](Cc1ccccc1)C(=O)NCC#N [compound 1, (S)-2-Acetamido-N-(cyanomethyl)-3-phenylpropanamide]
IC50 (papain; without irradiation, phosphate buffer pH 6.5, enzyme 650 nM): 638 nM | IC50 (human cathepsin B): 133 µM | IC50 (human cathepsin K [1]): 12 µM | IC50 (human cathepsin L): 72 µM | IC50 [2]: 182 µM | IC50 [3]: 183 µM

Molecule: CC#N.CC#N.F[P-](F)(F)(F)(F)F.F[P-](F)(F)(F)(F)F.[Ru+2].c1ccc2nc(-c3ccc4ccccc4n3)ccc2c1.c1ccc2nc(-c3ccc4ccccc4n3)ccc2c1 [12.3, [Ru(biq)2(CH3CN)2](PF6)2]
quantum yield, first CH3CN ligand exchange (Φ500) [4]: 0.24(1) | quantum yield, first CH3CN ligand exchange (Φ550) ([4]; 550 nm irradiation): 0.150(8)

quantum yield, exchange of the remaining CH3CN ligand (Φ400) ([4]; 400 nm irradiation, to the bis-aqua complex 12.5): 0.0045(1) | quantum yield, exchange of the remaining CH3CN ligand (Φ550) ([4]; 550 nm irradiation, to the bis-aqua complex 12.5): 0.0014(5) | stability in the dark [5]: stable in the dark for up to 6 hours
Molecule: cis-[Ru(bpy)(biq)(CH3CN)(H2O)]^2+ [12.4]

Molecule: N#Cc1c[nH]c(=O)[nH]c1=O.N#Cc1c[nH]c(=O)[nH]c1=O.[Cl-].[Cl-].[Ru+2].c1ccc(-c2ccccn2)nc1.c1ccc(-c2ccccn2)nc1 [cis-[Ru(bpy)2(5-cyanouracil)2]Cl2]
quantum yield for formation of the mono-aqua species (ΦR→I) [6]: 0.16(4)

Molecule: CC#N.CC#N.F[P-](F)(F)(F)(F)F.F[P-](F)(F)(F)(F)F.[Ru+2].c1cnc2c(c1)ccc1cccnc12.c1cnc2c(c1)ccc1cccnc12 [12.2, [Ru(phen)2(CH3CN)2](PF6)2]
quantum yield, first CH3CN ligand exchange (Φ400) ([4]; 400 nm irradiation): 0.22(1)

Molecule: CC#N.CC#N.F[P-](F)(F)(F)(F)F.F[P-](F)(F)(F)(F)F.[Ru+2].c1ccc(-c2ccccn2)nc1.c1ccc(-c2ccccn2)nc1 [cis-[Ru(bpy)2(MeCN)2](PF6)2, reference compound]
IC50 (papain; control complex, same profile under light and dark conditions): > 500000 nM | cell viability (MTT) (BMM cells): no effects on viability | growth inhibitory effects (MTT) [7]: not observed

quantum yield, first CH3CN ligand exchange (Φ500) [4]: 0.26(1) | quantum yield, first CH3CN ligand exchange (Φ550) ([4]; 550 nm irradiation): 0.140(5)
Molecule: [Ru(biq)(phen)(CH3CN)2](PF6)2 [12.1]

inhibition of cathepsin K (human cathepsin K [8]): no inhibition
Molecule: [Ru(TPA)(CH3CN)2](PF6)2 [10.1]

Molecule: CC#N.CC#N.[Cl-].[Cl-].[Ru+2].c1ccc(-c2ccccn2)nc1.c1ccc(-c2ccccn2)nc1 [cis-[Ru(bpy)2(MeCN)2]Cl2]
overall photoaquation quantum yield (ΦR→P) ([6]; λirr=400 nm): 0.21
